The text below walks through data of patent publication US8580829B2 (Boehringer Ingelheim International GmbH, priority 2010, dated 2013).

Where two headings read alike, the source gives them in different places.

Broadly, the IC50 is the concentration that gives 50% inhibition.

Test [1] concerns the target T1, recombinant human FLAP protein (Homo sapiens, UniProt P20292).
T1 construct: made in house; host or cells: Sf9 insect cells (100,000 x g membrane fraction)
T1 sequence (P20292 1-161): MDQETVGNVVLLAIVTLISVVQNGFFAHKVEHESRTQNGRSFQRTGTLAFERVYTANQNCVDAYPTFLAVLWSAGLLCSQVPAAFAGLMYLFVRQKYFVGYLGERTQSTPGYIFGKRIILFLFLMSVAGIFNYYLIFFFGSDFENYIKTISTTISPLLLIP
In words: FLAP binding assay (Scintillation Proximity Assay, displacement of [125I]L-691,831). The conditions noted are these: recombinant human FLAP membranes, [125I]L-691,831 probe; read-out: FLAP SPA IC50. In outline: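 Membranes came from Sf9 insect cells expressing recombinant human FLAP, collected as the 100,000×g pellet in Tris pH 7.5/MgCl2/EDTA buffer. 5 μg membrane protein was coupled to WGA SPA beads for 1 h.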
In general terms: In a scintillation proximity assay essentially only radioactivity close to the scintillant gives light.

Test [2] has as its system synthesis of LTB4 in human whole blood. In words: human whole blood LTB4 production inhibition assay. Type of test: cell-based. In outline: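 LTB4 levels in plasma were measured by antibody-based HTRF after heparinized human whole blood, pretreated with compound (15 min, 37° C), was challenged with 20 μM calcimycin for 30 min at 37° C.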
[3] abbreviates: Homo sapiens, heparinized human whole blood, calcimycin 20 μM, read-out: hWB LTB4 IC50.

For the compound `COCCNc1ccc(-c2nc(C3(c4ccc(-c5cnc(N)nc5)cc4)CCC3)no2)cn1` [Example 182, 5-[4-(1-{5-[6-(2-Methoxy-ethylamino)-pyridin-3-yl]-1,2,4-oxadiazol-3-yl}-cyclobutyl)-phenyl]-pyrimidin-2-ylamine], the figures for the IC50 in test [1] and in test [2] (setting [3]) were 1.1 nM and 40 nM, respectively.
In the same order, the values of `CNC(=O)c1ccc(-c2nc(C3(c4ccc(-c5cnc(N)nc5)cc4)CCC3)no2)cn1` [Example 28, 5-(3-{1-[4-(2-Amino-pyrimidin-5-yl)-phenyl]-cyclobutyl}-1,2,4-oxadiazol-5-yl)-pyridine-2-carboxylic acid methylamide] are 4.3 nM and 320 nM.
In the same order, the values of `COCCNC(=O)Cn1cc(-c2nc(C3(c4ccc(-c5cnc(N)nc5)cc4)CCC3)no2)cn1` [Example 228, 2-[4-(3-{1-[4-(2-Amino-pyrimidin-5-yl)-phenyl]-cyclobutyl}-[1,2,4]oxadiazol-5-yl)-pyrazol-1-yl]-N-(2-methoxy-ethyl)-acetamide] are 3.3 nM and 160 nM.
Turning to `Nc1ccc(-c2nc(C3(c4ccc(-c5cnc(N)nc5)cc4)CCC3)no2)cn1` [Example 20, 5-(4-{1-[5-(6-Amino-pyridin-3-yl)-1,2,4-oxadiazol-3-yl]-cyclobutyl}-phenyl)-pyrimidin-2-ylamine], the IC50 was found to be 1.9 nM in test [1] and 63 nM in test [2] (setting [3]).
In the same order, the values of `Nc1ncc(-c2ccc(C3(c4noc(-c5ccc(N6CC[C@@H](O)C6)nc5)n4)CCC3)cc2)cn1` [Example 103, (R)-1-[5-(3-{1-[4-(2-Amino-pyrimidin-5-yl)-phenyl]-cyclobutyl}-1,2,4-oxadiazol-5-yl)-pyridin-2-yl]-pyrrolidin-3-ol] are 1.3 nM and 63 nM.
With `Cc1ccc(-c2nc(C3(c4ccc(-c5cnc(N)nc5)cc4)CCCCC3)no2)cn1` [Example 154, 5-(4-{1-[5-(6-Methyl-pyridin-3-yl)-1,2,4-oxadiazol-3-yl]-cyclohexyl}-phenyl)-pyrimidin-2-ylamine], the IC50 in test [1] amounted to 1.7 nM; in test [2] (setting [3]) it was 810 nM.
For `CN(C)C(=O)n1cc(-c2nc(C3(c4ccc(-c5cnc(N)nc5)cc4)CCC3)no2)cn1` [Example 136, 4-(3-{1-[4-(2-Amino-pyrimidin-5-yl)-phenyl]-cyclobutyl}-1,2,4-oxadiazol-5-yl)-pyrazole-1-carboxylic acid dimethylamide], in that order: 1.5 nM and 66 nM.
With `Cn1cccc(-c2nc(C3(c4ccc(-c5cnc(N)nc5)cc4)CCC3)no2)c1=O` [Example 32, 3-(3-{1-[4-(2-Amino-pyrimidin-5-yl)-phenyl]-cyclobutyl}-1,2,4-oxadiazol-5-yl)-1-methyl-1Hpyridin-2-one], the IC50 in test [1] stood at 4.6 nM; in test [2] (setting [3]) it was 77 nM.
In the case of `Nc1ncc(-c2ccc(C3(c4noc(-c5cnn(CCN6CCCC6)c5)n4)CCC3)cc2)cn1` [Example 253, 5-[4-(1-{5-[1-(2-Pyrrolidin-1-yl-ethyl)-1H-pyrazol-4-yl]-[1,2,4]oxadiazol-3-yl}-cyclobutyl)-phenyl]-pyrimidin-2-ylamine], the IC50 in test [1] amounted to 8.1 nM; in test [2] (setting [3]) it was 75 nM.
In the same order, the values of `CN(C)C(=O)c1nc(C2(c3ccc(-c4cnc(N)nc4)cc3)CCC2)no1` [Example 14, 3-{1-[4-(2-Amino-pyrimidin-5-yl)-phenyl]-cyclobutyl}-1,2,4-oxadiazole-5-carboxylic acid dimethylamide] are 57 nM and more than 5000 nM.
For `Cn1ccc(-c2nc(C3(c4ccc(-c5cnc(N)nc5)cc4)CCC3)no2)n1` [Example 92, 5-(4-{1-[5-(1-Methyl-1I-pyrazol-3-yl)-1,2,4-oxadiazol-3-yl]-cyclobutyl}-phenyl)-pyrimidin-2-ylamine], in that order: 4.9 nM and 150 nM.
Turning to `Nc1ncc(-c2ccc(C3(c4noc(-c5cnc(N6CCNCC6)cn5)n4)CCC3)cc2)cn1` [Example 307, 5-(4-{1-[5-(3,4,5,6-Tetrahydro-2H-1,2′-bipyrazinyl-5′-yl)-1,2,4-oxadiazol-3-yl]-cyclobutyl}-phenyl)-pyrimidin-2-ylamine], the IC50 in test [1] was 3.5 nM; in test [2] (heparinized human whole blood, calcimycin 20 μM, read-out: hWB LTB4 IC50), 150 nM.
As to `COC(=O)C(C)(C)Nc1cnc(-c2nc(C3(c4ccc(-c5cnc(N)nc5)cc4)CCC3)no2)cn1` [Example 90, 2-[5-(3-{1-[4-(2-Amino-pyrimidin-5-yl)-phenyl]-cyclobutyl}-1,2,4-oxadiazol-5-yl)-pyrazin-2-ylamino]-2-methyl-propionic acid methyl ester], the IC50 is 3.4 nM in test [1] and 210 nM in test [2] (setting [3]).
For `Nc1ncc(-c2ccc(C3(c4noc(-c5cnn(CC(=O)NC6CCOCC6)c5)n4)CCC3)cc2)cn1` [Example 218, 2-[4-(3-{1-[4-(2-Amino-pyrimidin-5-yl)-phenyl]-cyclobutyl}-[1,2,4]oxadiazol-5-yl)-pyrazol-1-yl]-N-(tetrahydro-pyran-4-yl)-acetamide], in that order: 1.2 nM and 160 nM.
`NC(=O)c1ccc(-c2nc(C3(c4ccc(-c5cnc(N)nc5)cc4)CCC3)no2)cn1` [Example 17, 5-(3-{1-[4-(2-Amino-pyrimidin-5-yl)-phenyl]-cyclobutyl}-1,2,4-oxadiazol-5-yl)-pyridine-2-carboxylic acid amide]: the IC50 in test [1] came out at 2.1 nM; in test [2] (setting [3]), 180 nM.
Consider `CN1CCC(N(C)c2nc(C3(c4ccc(-c5cnc(N)nc5)cc4)CCC3)no2)CC1` [Example 293, 5-[4-(1-{5-[Methyl-(1-methyl-piperidin-4-yl)-amino]-[1,2,4]oxadiazol-3-yl}-cyclobutyl)-phenyl]-pyrimidin-2-ylamine], for which the IC50 in test [1] was 150 nM; in test [2] (Homo sapiens, read-out: hWB LTB4 IC50 (nM)), 750 nM.
Consider `Nc1ccc(-c2ccc(C3(c4noc(-c5cnn(C6COC6)c5)n4)CCC3)cc2)cn1` [Example 252, 5-(4-{1-[5-(1-Oxetan-3-yl-1H-pyrazol-4-yl)-[1,2,4]oxadiazol-3-yl]-cyclobutyl}-phenyl)-pyridin-2-ylamine], for which the IC50 in test [1] was 5.3 nM; in test [2] (setting [3]) it was 34 nM.
With `Cn1cncc1-c1nc(C2(c3ccc(-c4cnc(N)nc4)cc3)CCC2)no1` [Example 176, 5-(4-{1-[5-(3-Methyl-3H-imidazol-4-yl)-1,2,4-oxadiazol-3-yl]-cyclobutyl}-phenyl)-pyrimidin-2-ylamine], the IC50 was 5.6 nM in test [1] and 410 nM in test [2] (setting [3]).
Take `CN(C(=O)Cn1cc(-c2nc(C3(c4ccc(-c5cnc(N)nc5)cc4)CCC3)no2)cn1)C1CC1` [Example 141, 2-[4-(3-{1-[4-(2-Amino-pyrimidin-5-yl)-phenyl]-cyclobutyl]-1,2,4-oxadiazol-5-yl)-pyrazol-1-yl]-N-cyclopropyl-N-methyl-acetamide]: the results for the IC50 in test [1] and in test [2] (setting [3]) were 0.9 nM and 43 nM, respectively.
As for `Cc1cc(-c2cnc(N)nc2)ccc1C1(c2noc(-c3cnn(C)c3)n2)CCC1` [Example 295], the IC50 in test [1] is 12 nM; in test [2] (setting [3]), 100 nM.
In the same order, the values of `Cc1cc(-c2nc(C3(c4ccc(-c5cnc(N)nc5)cc4)CCC3)no2)n(C)n1` [Example 161, 5-(4-{1-[5-(2,5-Dimethyl-2H-pyrazol-3-yl)-1,2,4-oxadiazol-3-yl]-cyclobutyl}-phenyl)-pyrimidin-2-ylamine] are 6.6 nM and 860 nM.
For `Cc1cc(-c2nc(C3(c4ccc(-c5cnc(N)nc5)cc4)CCOCC3)no2)n(C)n1` [Example 148, 5-(4-{4-[5-(2,5-Dimethyl-2H-pyrazol-3-yl)-1,2,4-oxadiazol-3-yl]-tetrahydro-pyran-4-yl}-phenyl)-pyrimidin-2-ylamine], in that order: 46 nM and 3300 nM.
In the same order, the values of `Nc1ncc(-c2ccc(C3(c4noc(-c5cc[nH]n5)n4)CCC3)cc2)cn1` [Example 93, 5-(4-{1-[5-(1H-Pyrazol-3-yl)-1,2,4-oxadiazol-3-yl]-cyclobutyl}-phenyl)-pyrimidin-2-ylamine] are 2.4 nM and 160 nM.
Turning to `CN(C(=O)Cn1cc(-c2nc(C3(c4ccc(-c5cnc(N)nc5)cc4)CCC3)no2)cn1)C1CCCOC1` (stereo not drawn) [Example 247, 2-[4-(3-{1-[4-(2-Amino-pyrimidin-5-yl)-phenyl]-cyclobutyl}-[1,2,4]oxadiazol-5-yl)-pyrazol-1-yl]-N-methyl-N-(tetrahydro-pyran-3-yl)-acetamide], the IC50 in test [1] was found to be 8.2 nM; in test [2] (setting [3]) it was 88 nM.
For `Cc1n[nH]c(C)c1Cc1nc(C2(c3ccc(-c4cnc(N)nc4)cc3)CCC2)no1` [Example 279], in that order: 29 nM and more than 5000 nM.
In the same order, the values of `Nc1ncc(-c2ccc(C3(c4noc(-c5cnc(N6CC(O)C6)cn5)n4)CCC3)cc2)cn1` [Example 86, 1-[5-(3-{1-[4-(2-Amino-pyrimidin-5-yl)-phenyl]-cyclobutyl}-1,2,4-oxadiazol-5-yl)-pyrazin-2-yl]-azetidin-3-ol] are 1.2 nM and 79 nM.
Consider `CN(C)C(=O)Cn1cc(-c2nc(C3(c4ccc(-c5cnc6[nH]ccc6n5)cc4)CCC3)no2)cn1` [Example 275, N,N-Dimethyl-2-[4-(3-{1-[4-(5H-pyrrolo[2,3-b]pyrazin-2-yl)-phenyl]-cyclobutyl}-[1,2,4]oxadiazol-5-yl)-pyrazol-1-yl]-acetamide], for which the IC50 in test [1] is 2.8 nM; in test [2] (setting [3]), 140 nM.
